Test results published in patent publication US20260193236A1 (Protego Biopharma, Inc., priority 2022, published 2026).

These compounds were tested on IRE1-XBP1s (XBP1-RLuc splicing reporter in HEK293 T-REx cells) (assay: IRE1-XBP1s activation assay (XBP1-RLuc splicing reporter, HEK293 T-REx cells, luminescence relative to thapsigargin)). Conditions: 18 h, compound 10 μM, HEK293 T-REx XBP1-RLuc reporter cells, relative to thapsigargin (Tg) 500 nM, read-out: Activity (IRE1-XBP1s activation, luminescence as % signal relative to thapsigargin, % Tg).
Assay type: cell-based
Description: IRE1-XBP1s activation Assay: HEK293 T-REx cells stably expressing the XBP1-RLuc splicing reporter were treated with an IRE1-XBP1s activator provided herein (10 μM) in the presence or absence of the IRE1 active site inhibitor 4μ8C (32 μM) for 18 h. Luminescence was shown as the percentage signal relative to thapsigargin (Tg) (500 nM, 18 h).

Compound	activation at 10 µM
Cc1ccc(OCCN(C)C(=O)Cn2cc(NC(=O)CCNc3cncc(N)n3)cn2)cc1 [Compound 122]	< 30%
Cc1ccc(OCCN(C)C(=O)Cn2cc(NC(=O)C(C)(C)CNc3ccc(F)nc3C)cn2)cc1 [Compound 221]	< 30%
Cc1ccc(OCCN(C)C(=O)Cn2cc(NC(=O)CCOc3ccccc3OC(F)(F)F)cn2)cc1 [Compound 54]	30 to 50%
Cc1ccc(OCCN(C)C(=O)Cn2cc(NC(=O)[C@@H](C)CNc3nccc(F)n3)cn2)cc1 [Compound 223]	> 50%
Cc1ccc(OCCN(C)C(=O)Cn2cc(NC(=O)CCNc3c(F)cncc3C=O)cn2)cc1 [Compound 230, 3-((3-fluoro-5-formylpyridin-4-yl)amino)-N-(1-(2-(methyl(2-(p-tolyloxy)ethyl)amino)-2-oxoethyl)-1H-pyrazol-4-yl)propanamide]	> 50%
Cc1ccc(OCCC(=O)Nc2cnn(CC(=O)N(C)CCOc3ccc(C(F)F)cc3)c2)c(F)c1 [Compound 86]	> 50%
COc1ccc(NCCC(=O)Nc2cnn(CC(=O)N(C)CCOc3ccc(C)cc3)c2)c(C)n1 [Compound 197]	30 to 50%
COc1ncc(C(F)(F)F)cc1NCCC(=O)Nc1cnn(CC(=O)N(C)CCOc2ccc(C)cc2)c1 [Compound 187]	30 to 50%
Cc1ccc(OCCN(C)C(=O)Cn2cc(NC(=O)CCNc3ncc(F)cc3C)cn2)cc1 [Compound 206]	> 50%
Cc1ccc(OCCN(C)C(=O)Cn2cc(NC(=O)CCNc3cc(C)ncc3F)cn2)cc1 [Compound 207]	< 30%
Cc1ccc(OCCN(C)C(=O)Cn2cc(NC(=O)CCNc3cccc(Cl)n3)cn2)cc1 [Compound 156]	> 50%
Cc1ccc(OC[C@H](C)N(C)C(=O)Cn2cc(NC(=O)CCNc3ccnc(F)n3)cn2)cc1 [Compound 264]	> 50%
Cc1ccc(OCCC(=O)Nc2cnn(CC(=O)N(C)CCOc3ccc(C4CC4)cc3)c2)c(F)c1 [Compound 73]	30 to 50%
Cc1ccc(OCCN(C)C(=O)Cn2cc(NC(=O)CCNc3ncccc3F)cn2)cc1 [Compound 146]	30 to 50%
Cc1ccc(OCCN(C)C(=O)Cn2cc(NC(=O)CCNc3cc4c(cn3)OCO4)cn2)cc1 [Compound 291]	30 to 50%
Cc1ccc(OCCN(C)C(=O)Cn2cc(NC(=O)CCOc3cccc(C)n3)cn2)cc1 [Compound 105]	> 50%
COc1ccc(OCCN(C)C(=O)Cn2cc(NC(=O)CCOc3ccccc3)cn2)cc1 [Compound 24]	< 30%
Cc1ccc(OCCN(C)C(=O)Cn2cc(NC(=O)CCNc3cc(C(F)(F)F)ccn3)cn2)cc1 [Compound 133]	> 50%
Cc1ccc(OCCN(C)C(=O)Cn2cc(NC(=O)CCOc3ccc(F)cc3C)cn2)cc1 [Compound 35]	> 50%
Cc1cc(F)ccc1OCCC(=O)Nc1cnn(CC(=O)N(C)CCOc2ccc(C(=O)O)cc2)c1 [Compound 88]	< 30%
CCc1cc(F)ccc1OCCC(=O)Nc1cnn(CC(=O)N(C)CCOc2ccc(C)cc2)c1 [Compound 59]	< 30%
Cc1ccc(OCCN(C)C(=O)Cn2cc(NC(=O)CCNc3ccc(C)nc3F)cn2)cc1 [Compound 181]	< 30%
CC(=O)c1cncc(F)c1NCCC(=O)Nc1cnn(CC(=O)N(C)CCOc2ccc(C)cc2)c1 [Compound 232]	> 50%
Cc1ccc(OCCN(C)C(=O)Cn2cc(NC(=O)CCOc3c(C)ccnc3N)cn2)cc1 [Compound 17]	< 30%
Cc1ccc(OCCN(C)C(=O)Cn2cc(NC(=O)CCOc3ccc(C)cc3F)cn2)cc1 [Compound 39]	30 to 50%
Cc1ccc(OCCN(C)C(=O)Cn2cc(NC(=O)C(O)CNc3ncc(F)cn3)cn2)cc1 (stereo not shown) [Compound 163]	< 30%
Cc1ccc(OCCN(C)C(=O)Cn2cc(NC(=O)OC3CCCN(c4ccnc(F)n4)C3)cn2)cc1 (stereo not shown) [Compound 201]	< 30%
COc1ccc(OCCN(C)C(=O)Cn2cc(NC(=O)CCNc3ccnc(OC)c3)cn2)cc1 [Compound 169]	> 50%
